Measured values as given in the NIST ThermoML archive (doi:10.1021/je034102r).

Experiment: molar heat capacity at constant pressure
Details: 101.33 kPa, Liquid, heat bridge-scanning calorimeter

CCCCn1cc[n+](C)c1.F[P-](F)(F)(F)(F)F [1-butyl-3-methylimidazolium hexafluorophosphate]
Details | molar heat capacity at constant pressure [J/K/mol]
436.99 K | 483.11
437.29 K | 483.68
437.42 K | 483.96
437.56 K | 484.53
437.69 K | 484.82
437.83 K | 485.38
437.96 K | 485.1
438.1 K | 485.1
438.24 K | 484.53
438.37 K | 483.96
438.67 K | 484.53
438.81 K | 484.53
438.94 K | 484.82
439.08 K | 485.1
439.21 K | 484.82
439.35 K | 484.82
439.49 K | 484.82
439.62 K | 485.38
439.76 K | 485.95
439.89 K | 485.67
440.03 K | 485.95
440.32 K | 485.1
440.46 K | 484.82
440.6 K | 484.82
440.73 K | 484.82
440.87 K | 484.82
441 K | 484.82
441.14 K | 485.1
441.28 K | 484.82
441.41 K | 484.53
441.71 K | 484.82
441.85 K | 485.1
441.98 K | 485.1
442.12 K | 485.1
442.25 K | 485.67
442.39 K | 486.52
442.53 K | 486.52
442.66 K | 485.95
442.8 K | 485.95
442.93 K | 486.24
443.07 K | 486.24
443.37 K | 485.95
443.51 K | 485.95
443.65 K | 485.95
443.78 K | 485.95
443.92 K | 486.24
444.05 K | 485.95
444.19 K | 486.24
444.32 K | 485.95
444.46 K | 486.52
444.76 K | 485.95
444.9 K | 485.95
445.03 K | 485.95
445.17 K | 486.24
445.3 K | 486.8
445.44 K | 486.52
445.58 K | 487.37
445.71 K | 487.37
445.85 K | 486.8
445.99 K | 487.09
446.12 K | 486.52
446.42 K | 487.09
446.55 K | 487.09
446.69 K | 487.09
446.83 K | 487.37
446.96 K | 487.94
447.1 K | 487.66
447.23 K | 487.66
447.37 K | 487.37
447.51 K | 487.09
447.81 K | 489.08
447.94 K | 489.65
448.08 K | 489.36
448.22 K | 488.51
448.35 K | 488.23
448.49 K | 487.94
448.62 K | 487.94
448.76 K | 488.23
448.9 K | 487.94
449.03 K | 487.66
449.17 K | 487.94
449.46 K | 487.94
449.6 K | 487.94
449.74 K | 488.79
449.89 K | 489.08
450.02 K | 489.36
450.16 K | 489.08
450.3 K | 488.51
450.43 K | 488.51
450.57 K | 488.23
450.87 K | 488.51
451 K | 489.08
451.14 K | 489.08
451.28 K | 488.79
451.41 K | 488.51
